The results in this text go back to ChEMBL document CHEMBL1909046, “DrugMatrix in vitro pharmacology data”.

The target in one test is T1, Alpha-1B adrenergic receptor (Rattus norvegicus, UniProt P15823).
T1 sequence (P15823 whole entry): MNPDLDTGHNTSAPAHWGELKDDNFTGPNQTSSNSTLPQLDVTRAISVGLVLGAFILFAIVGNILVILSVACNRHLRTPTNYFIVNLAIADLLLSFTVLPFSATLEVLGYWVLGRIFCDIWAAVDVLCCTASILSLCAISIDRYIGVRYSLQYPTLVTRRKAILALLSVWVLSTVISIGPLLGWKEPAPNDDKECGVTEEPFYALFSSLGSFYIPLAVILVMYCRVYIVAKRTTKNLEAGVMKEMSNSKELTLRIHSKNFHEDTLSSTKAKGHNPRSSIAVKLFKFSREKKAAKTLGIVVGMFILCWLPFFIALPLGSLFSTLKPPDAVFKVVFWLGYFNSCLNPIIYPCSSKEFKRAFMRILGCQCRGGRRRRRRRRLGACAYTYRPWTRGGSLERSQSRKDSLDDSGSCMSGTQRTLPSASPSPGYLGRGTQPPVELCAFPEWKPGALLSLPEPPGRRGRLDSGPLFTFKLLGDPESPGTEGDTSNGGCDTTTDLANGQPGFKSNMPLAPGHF
Briefly: DRUGMATRIX: Alpha-1B adrenergic receptor radioligand binding (ligand: prazosin). The format is cell membranes, Wistar, Liver, Membrane. To be noted: Not Active = under 50% inhibition at 10 µM.
As to `Cc1cccc(Nc2cc(Cl)nc(SCC(=O)O)n2)c1C` [PIRINIXIC ACID], the IC50 entry is “Not Active”.
On the same count and under the same terms, under `CC[C@H](C)C(=O)O[C@H]1C[C@H](O)C=C2C=C[C@H](C)[C@H](CC[C@@H](O)C[C@@H](O)CC(=O)O)[C@H]21` [PRAVASTATIN] stands “Not Active”; under `CC(C)(Sc1cc(C(C)(C)C)c(O)c(C(C)(C)C)c1)Sc1cc(C(C)(C)C)c(O)c(C(C)(C)C)c1` [PROBUCOL], “Not Active”.
As for COBALT(II) ACETYLACETONATE, the IC50 entry was “Not Active” and the Ki result was “Not Active”.
For the compound INSULIN HUMAN, the IC50 result is reported as “Not Active” and the Ki entry is reported as “Not Active”.
Turning to POLYVINYL ALCOHOL, the IC50 result is on record as “Not Active” and the Ki entry was “Not Active”.

The target in the next test is Beta-1 adrenergic receptor (Homo sapiens, UniProt P08588). Kind of test: DRUGMATRIX: Adrenergic beta1 radioligand binding (ligand: [125I] Cyanopindolol). The format is cell membranes, CHO-K1, Membrane. The following applies: cho-k1; Not Active = under 50% inhibition at 10 µM.
Chain of Beta-1 adrenergic receptor (P08588 whole entry): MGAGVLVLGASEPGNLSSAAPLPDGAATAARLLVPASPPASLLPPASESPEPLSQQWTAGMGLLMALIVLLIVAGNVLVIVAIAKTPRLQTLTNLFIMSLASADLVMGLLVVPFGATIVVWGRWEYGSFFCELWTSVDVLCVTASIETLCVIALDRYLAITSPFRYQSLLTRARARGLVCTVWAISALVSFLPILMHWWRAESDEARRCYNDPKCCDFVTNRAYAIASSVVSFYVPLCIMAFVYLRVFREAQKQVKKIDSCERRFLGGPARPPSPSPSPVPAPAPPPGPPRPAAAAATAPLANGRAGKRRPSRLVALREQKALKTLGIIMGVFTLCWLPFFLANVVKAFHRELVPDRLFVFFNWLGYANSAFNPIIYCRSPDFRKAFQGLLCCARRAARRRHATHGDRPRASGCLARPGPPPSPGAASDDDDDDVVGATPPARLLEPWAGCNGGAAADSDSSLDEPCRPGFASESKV
In the case of `Cc1cccc(Nc2cc(Cl)nc(SCC(=O)O)n2)c1C` [PIRINIXIC ACID], the IC50 entry is listed as “Not Active”.
In the case of `CC[C@H](C)C(=O)O[C@H]1C[C@H](O)C=C2C=C[C@H](C)[C@H](CC[C@@H](O)C[C@@H](O)CC(=O)O)[C@H]21` [PRAVASTATIN], the IC50 entry is “Not Active”.
Regarding `CC(C)(Sc1cc(C(C)(C)C)c(O)c(C(C)(C)C)c1)Sc1cc(C(C)(C)C)c(O)c(C(C)(C)C)c1` [PROBUCOL], the IC50 result is recorded as “Not Active”.
For the compound COBALT(II) ACETYLACETONATE, the IC50 entry is recorded as “Not Active” and the Ki entry was “Not Active”.
INSULIN HUMAN: the IC50 result is listed as “Not Active” and the Ki entry is listed as “Not Active”.
On to POLYVINYL ALCOHOL, for which the IC50 result is reported as “Not Active” and the Ki result is recorded as “Not Active”.

The target of a further test is D(3) dopamine receptor (Homo sapiens, UniProt P35462). Briefly: DRUGMATRIX: Dopamine D3 radioligand binding (ligand: [3H] Spiperone). The format is cell membranes, CHO, Membrane. To be noted: cho.
Chain of D(3) dopamine receptor (P35462 whole entry): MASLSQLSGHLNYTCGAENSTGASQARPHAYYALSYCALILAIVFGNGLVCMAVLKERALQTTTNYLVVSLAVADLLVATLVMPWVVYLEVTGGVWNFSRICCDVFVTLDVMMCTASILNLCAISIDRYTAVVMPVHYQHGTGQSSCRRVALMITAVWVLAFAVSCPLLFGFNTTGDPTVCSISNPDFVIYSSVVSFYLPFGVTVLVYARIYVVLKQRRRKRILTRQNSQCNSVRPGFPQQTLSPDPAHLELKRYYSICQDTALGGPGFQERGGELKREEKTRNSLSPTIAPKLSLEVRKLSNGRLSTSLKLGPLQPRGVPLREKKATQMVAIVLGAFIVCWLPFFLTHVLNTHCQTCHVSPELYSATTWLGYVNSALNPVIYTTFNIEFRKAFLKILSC
`Cc1cccc(Nc2cc(Cl)nc(SCC(=O)O)n2)c1C` [PIRINIXIC ACID]: the IC50 result is recorded as “Not Active”.
Regarding `CC[C@H](C)C(=O)O[C@H]1C[C@H](O)C=C2C=C[C@H](C)[C@H](CC[C@@H](O)C[C@@H](O)CC(=O)O)[C@H]21` [PRAVASTATIN], the IC50 result was “Not Active”.
On to `CC(C)(Sc1cc(C(C)(C)C)c(O)c(C(C)(C)C)c1)Sc1cc(C(C)(C)C)c(O)c(C(C)(C)C)c1` [PROBUCOL], for which the IC50 entry is “Not Active”.
On to COBALT(II) ACETYLACETONATE, for which the IC50 result was “Not Active” and the Ki entry was “Not Active”.
For the compound INSULIN HUMAN, the IC50 result is on record as “Not Active” and the Ki entry is “Not Active”.
Take POLYVINYL ALCOHOL: the IC50 entry was “Not Active” and the Ki result was “Not Active”.

A further test has as its target T2, Polyunsaturated fatty acid lipoxygenase ALOX15 (Oryctolagus cuniculus, UniProt P12530).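 Also: inhibition of 15-lipoxygenase enzyme activity measured with linoleic acid as the substrate; in other assays of this panel Not Active means under 50% inhibition at 10 µM.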
T2 sequence (P12530 whole entry): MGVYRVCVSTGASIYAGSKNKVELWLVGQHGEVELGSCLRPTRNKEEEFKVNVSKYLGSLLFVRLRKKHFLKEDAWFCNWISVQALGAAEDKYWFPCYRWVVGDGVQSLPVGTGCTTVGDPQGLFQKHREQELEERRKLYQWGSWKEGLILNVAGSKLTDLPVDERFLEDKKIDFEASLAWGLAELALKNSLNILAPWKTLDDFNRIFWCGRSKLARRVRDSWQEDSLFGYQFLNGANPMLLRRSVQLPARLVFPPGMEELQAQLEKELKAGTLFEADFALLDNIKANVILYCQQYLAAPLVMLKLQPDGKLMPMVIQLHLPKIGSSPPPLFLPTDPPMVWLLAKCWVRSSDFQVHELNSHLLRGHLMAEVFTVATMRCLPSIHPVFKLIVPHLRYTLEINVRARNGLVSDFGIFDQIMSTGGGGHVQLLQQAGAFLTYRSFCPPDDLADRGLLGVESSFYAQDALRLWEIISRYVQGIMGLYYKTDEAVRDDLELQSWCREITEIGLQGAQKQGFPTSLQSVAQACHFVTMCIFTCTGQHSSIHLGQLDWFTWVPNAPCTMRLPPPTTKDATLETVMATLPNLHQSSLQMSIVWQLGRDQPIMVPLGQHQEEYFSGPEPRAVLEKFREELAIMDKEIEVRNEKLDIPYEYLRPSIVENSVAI
Briefly: biochemical. To be noted: reticulocytes. The format is tissue-based, Reticulocytes.
Take `Cc1cccc(Nc2cc(Cl)nc(SCC(=O)O)n2)c1C` [PIRINIXIC ACID]: the IC50 entry is “Not Active”.
Same read-out and setting: under `CC[C@H](C)C(=O)O[C@H]1C[C@H](O)C=C2C=C[C@H](C)[C@H](CC[C@@H](O)C[C@@H](O)CC(=O)O)[C@H]21` [PRAVASTATIN] stands “Not Active”; under `CC(C)(Sc1cc(C(C)(C)C)c(O)c(C(C)(C)C)c1)Sc1cc(C(C)(C)C)c(O)c(C(C)(C)C)c1` [PROBUCOL], “Not Active”.
Take COBALT(II) ACETYLACETONATE: the IC50 entry is “Not Active” and the Ki result is “Not Active”.
For the compound INSULIN HUMAN, the IC50 result was “Not Active” and the Ki result is reported as “Not Active”.
POLYVINYL ALCOHOL: the IC50 result was “Not Active” and the Ki result is recorded as “Not Active”.

The target in a further test is T3, Muscarinic acetylcholine receptor M5 (Homo sapiens, UniProt P08912). Also: in other assays of this panel Not Active means under 50% inhibition at 10 µM.
T3 sequence (P08912 whole entry): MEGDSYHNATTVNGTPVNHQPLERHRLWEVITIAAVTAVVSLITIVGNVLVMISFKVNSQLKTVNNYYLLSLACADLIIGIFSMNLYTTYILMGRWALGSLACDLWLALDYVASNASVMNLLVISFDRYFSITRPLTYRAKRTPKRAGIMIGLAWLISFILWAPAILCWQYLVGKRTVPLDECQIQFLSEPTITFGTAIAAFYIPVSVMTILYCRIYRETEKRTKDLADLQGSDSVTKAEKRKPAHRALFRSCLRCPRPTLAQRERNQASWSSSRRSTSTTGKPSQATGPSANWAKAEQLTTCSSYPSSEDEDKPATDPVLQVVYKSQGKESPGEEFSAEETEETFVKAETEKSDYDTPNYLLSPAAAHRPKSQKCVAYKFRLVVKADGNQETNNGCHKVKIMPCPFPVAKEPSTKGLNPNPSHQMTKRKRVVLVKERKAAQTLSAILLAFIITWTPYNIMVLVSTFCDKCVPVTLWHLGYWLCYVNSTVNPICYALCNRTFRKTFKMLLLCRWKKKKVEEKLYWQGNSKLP
Assay: not given
The format is cell membranes, Membrane. To be noted: cho-k1.
For the compound `Cc1cccc(Nc2cc(Cl)nc(SCC(=O)O)n2)c1C` [PIRINIXIC ACID], the IC50 result was “Not Active”.
Still for that read-out and setting: as for `CC[C@H](C)C(=O)O[C@H]1C[C@H](O)C=C2C=C[C@H](C)[C@H](CC[C@@H](O)C[C@@H](O)CC(=O)O)[C@H]21` [PRAVASTATIN], the entry is “Not Active”.
Take `CC(C)(Sc1cc(C(C)(C)C)c(O)c(C(C)(C)C)c1)Sc1cc(C(C)(C)C)c(O)c(C(C)(C)C)c1` [PROBUCOL]: the IC50 result is “Not Active”.
As to COBALT(II) ACETYLACETONATE, the IC50 entry was “Not Active” and the Ki entry was “Not Active”.
Turning to INSULIN HUMAN, the IC50 result is listed as “Not Active” and the Ki entry was “Not Active”.
POLYVINYL ALCOHOL: the IC50 result is “Not Active” and the Ki result is recorded as “Not Active”.

For the next test, the target named is Matrix metalloproteinase-9 (Homo sapiens, UniProt P14780). Briefly: biochemical. The format is cell-based.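 Also: inhibition of isolated MMP-9 enzyme activity toward a synthetic peptide substrate, from the DrugMatrix protease screening panel; in other assays of this panel Not Active means under 50% inhibition at 10 µM.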
Chain of Matrix metalloproteinase-9 (P14780 whole entry): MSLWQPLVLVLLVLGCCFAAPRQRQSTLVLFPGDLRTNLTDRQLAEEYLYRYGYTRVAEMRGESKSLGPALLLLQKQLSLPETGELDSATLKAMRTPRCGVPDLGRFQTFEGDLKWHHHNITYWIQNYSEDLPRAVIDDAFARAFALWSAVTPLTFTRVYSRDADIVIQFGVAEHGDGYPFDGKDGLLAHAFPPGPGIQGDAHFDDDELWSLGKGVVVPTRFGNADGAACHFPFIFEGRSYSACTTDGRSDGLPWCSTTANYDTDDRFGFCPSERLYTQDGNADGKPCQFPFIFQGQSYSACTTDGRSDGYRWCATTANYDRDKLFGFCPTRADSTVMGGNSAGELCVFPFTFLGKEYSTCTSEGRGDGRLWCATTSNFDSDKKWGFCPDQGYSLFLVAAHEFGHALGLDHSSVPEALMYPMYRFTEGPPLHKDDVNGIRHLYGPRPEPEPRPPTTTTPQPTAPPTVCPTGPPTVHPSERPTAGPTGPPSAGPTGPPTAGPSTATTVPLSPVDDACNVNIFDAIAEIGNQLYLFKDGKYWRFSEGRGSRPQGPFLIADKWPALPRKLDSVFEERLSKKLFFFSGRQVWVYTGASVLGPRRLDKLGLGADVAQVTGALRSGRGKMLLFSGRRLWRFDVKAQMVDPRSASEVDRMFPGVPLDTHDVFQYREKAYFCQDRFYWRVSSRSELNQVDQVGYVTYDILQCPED
Details: not given
`Cc1cccc(Nc2cc(Cl)nc(SCC(=O)O)n2)c1C` [PIRINIXIC ACID]: the IC50 result is “Not Active”.
`CC[C@H](C)C(=O)O[C@H]1C[C@H](O)C=C2C=C[C@H](C)[C@H](CC[C@@H](O)C[C@@H](O)CC(=O)O)[C@H]21` [PRAVASTATIN]: the IC50 result was “Not Active”.
As to `CC(C)(Sc1cc(C(C)(C)C)c(O)c(C(C)(C)C)c1)Sc1cc(C(C)(C)C)c(O)c(C(C)(C)C)c1` [PROBUCOL], the IC50 entry is reported as “Not Active”.
As to COBALT(II) ACETYLACETONATE, the IC50 entry is reported as “Not Active” and the Ki entry is “Not Active”.
In the case of INSULIN HUMAN, the IC50 result is on record as “Not Active” and the Ki result is on record as “Not Active”.
As for POLYVINYL ALCOHOL, the IC50 entry is recorded as “Not Active” and the Ki result is reported as “Not Active”.
